Assay results as given in PMC4886219, “Bioengineered kidney tubules efficiently excrete uremic toxins” (Scientific Reports, 2016).
Structures can show the parent of a compound that is named as a salt. Where two headings read alike, the source gives them in different places.

Tests used:
OAT3 = molecular target: T1, OAT3 (Homo sapiens, UniProt Q8TCC7); assay: Fluorescein inhibition assay in ciPTEC-OAT3 flat monolayers
T1 sequence (Q8TCC7 1-542): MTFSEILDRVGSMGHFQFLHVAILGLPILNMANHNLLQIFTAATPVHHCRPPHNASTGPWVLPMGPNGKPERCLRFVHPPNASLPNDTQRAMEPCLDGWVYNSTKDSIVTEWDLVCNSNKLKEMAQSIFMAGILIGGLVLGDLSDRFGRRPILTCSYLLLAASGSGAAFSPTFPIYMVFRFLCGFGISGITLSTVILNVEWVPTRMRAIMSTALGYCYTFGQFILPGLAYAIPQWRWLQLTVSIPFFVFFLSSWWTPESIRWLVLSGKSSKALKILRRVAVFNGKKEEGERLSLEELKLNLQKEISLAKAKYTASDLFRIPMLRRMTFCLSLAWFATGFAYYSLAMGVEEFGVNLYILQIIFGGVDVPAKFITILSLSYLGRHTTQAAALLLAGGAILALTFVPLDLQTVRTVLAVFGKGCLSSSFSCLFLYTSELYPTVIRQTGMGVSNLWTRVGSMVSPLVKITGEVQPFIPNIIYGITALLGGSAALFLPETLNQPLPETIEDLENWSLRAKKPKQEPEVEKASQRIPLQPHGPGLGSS

[1] = parameters: method as in Duranton et al.[6]; conditions: mean plasma levels in ESRD patients; ref Duranton et al.[6]; cited from earlier work
OAT1 [2] = molecular target: T2, OAT1 (Homo sapiens, UniProt Q4U2R8); assay: Fluorescein inhibition assay in ciPTEC-OAT1 flat monolayers
T2 sequence (Q4U2R8 1-563): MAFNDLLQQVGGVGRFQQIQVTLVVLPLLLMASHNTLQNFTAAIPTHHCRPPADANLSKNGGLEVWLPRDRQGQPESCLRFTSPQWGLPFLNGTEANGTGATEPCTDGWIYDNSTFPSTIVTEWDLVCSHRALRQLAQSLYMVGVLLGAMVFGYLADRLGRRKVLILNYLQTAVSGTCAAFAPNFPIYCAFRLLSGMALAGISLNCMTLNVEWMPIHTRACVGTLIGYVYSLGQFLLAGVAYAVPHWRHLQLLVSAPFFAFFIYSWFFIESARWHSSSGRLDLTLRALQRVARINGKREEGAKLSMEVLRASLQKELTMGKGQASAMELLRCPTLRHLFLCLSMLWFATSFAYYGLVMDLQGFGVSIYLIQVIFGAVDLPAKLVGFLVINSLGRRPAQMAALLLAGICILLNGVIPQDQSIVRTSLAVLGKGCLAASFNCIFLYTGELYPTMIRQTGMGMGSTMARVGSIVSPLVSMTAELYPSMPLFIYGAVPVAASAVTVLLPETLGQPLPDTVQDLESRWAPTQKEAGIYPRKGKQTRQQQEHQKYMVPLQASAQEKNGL

[3] = test system: parent ciPTEC models lacking OAT1; assay: MTT cell viability assay in parent ciPTEC lacking OAT1; type: cell-based, human; conditions: parent ciPTEC lacking OAT1, in presence of efflux pump inhibitors
Method: After 4 hours of incubation, the intracellular
Monolayer polarization and transepithelial barrier function
Next, cells were incubated with
The mR NA expression level s of
PCR Master Mix (Applied Biosystems, Branchburg, NJ).

BCRP = test system: BCRP; parameters: method as in earlier work; conditions: vesicular transport assay; ref 14 (Mutsaers et al.); cited from earlier work
MRP4 = test system: MRP4; parameters: method as in earlier work; conditions: vesicular transport assay; ref 14 (Mutsaers et al.); cited from earlier work
OAT1 [4] = molecular target: T2, OAT1; assay: Uptake of indoxyl sulfate and kynurenic acid by ciPTEC-OAT1 (LC-MS/MS); conditions: 10 min, 37°C
OAT1 [5] = molecular target: T2, OAT1; assay: in vitro; conditions: pH 7.4, inhibition of indoxyl sulfate uptake
[6] = test system: bioengineered renal tubules (ciPTEC-OAT1 on HFM); assay: Transepithelial transport (clearance) of indoxyl sulfate and kynurenic acid in bioengineered renal tubules; type: cell-based; conditions: absence of human serum albumin; perfusion 10 min, 100 μM toxin
[7] = read-out: ciPTEC-OAT3 IC50 (inhibition of fluorescein uptake), 1 μM fluorescein, 10 min, 37°C, flat monolayers, mean ± S.E.M.
[8] = read-out: ciPTEC-OAT1 IC50 (inhibition of fluorescein uptake), 1 μM fluorescein, 10 min, 37°C, flat monolayers, mean ± S.E.M.

Compound	IC50 (OAT3)	Cm in ESRD patients [1]	IC50 (OAT1 [2])	other results
O=C(O)CNC(=O)c1ccccc1 [Hippuric acid]	22 ± 9 µM	398 µM	–	–
O=C(O)Cc1c[nH]c2ccccc12 [Indole-3-acetic acid]	148 ± 60 µM	–	19 ± 2 µM	–
O=S(=O)(O)Oc1c[nH]c2ccccc12 [Indoxyl sulfate]	–	110 µM	–	TC50 (cell viability, MTT) [3]: 3000 ± 500 µM; inhibition of BCRP (in words) (BCRP): potent inhibitors; inhibition of MRP4 (in words) (MRP4): potent inhibitors
O=C(O)[C@H]1O[C@@H](Oc2c[nH]c3ccccc23)[C@H](O)[C@@H](O)[C@@H]1O [Indoxyl-β-glucuronide]	527 ± 218 µM	9 µM	492 ± 68 µM	–
O=C(O)c1cc(=O)c2ccccc2[nH]1 [Kynurenic acid]	6 ± 1 µM	–	6 ± 1 µM	uptake by ciPTEC-OAT1 monolayers (OAT1 [4]; toxin 3 μM): 2.7 ± 0.3 pmol.min^−1.cm^−2; uptake by ciPTEC-OAT1 monolayers (OAT1 [4]; toxin 30 μM): 5.9 ± 0.5 pmol.min^−1.cm^−2; inhibition at 10 min, 100 μM (OAT1 [5]): 64 ± 13%; transepithelial clearance [6]: 72 ± 20 μl.min^−1.cm^−2
Nc1ccccc1C(=O)C[C@H](N)C(=O)O [L-Kynurenine]	219 ± 66 µM	6 µM	65 ± 8 µM	–
Cc1ccc(O[C@@H]2O[C@H](C(=O)O)[C@@H](O)[C@H](O)[C@H]2O)cc1 [p-Cresylglucuronide]	–	44 µM	–	IC50 (OAT3; [7]): 588 ± 81 µM; IC50 (OAT1 [2]; [8]): 2650 ± 922 µM
Cc1ccc(OS(=O)(=O)O)cc1 [p-Cresylsulfate]	–	675 µM	–	IC50 (OAT3; [7]): 112 ± 19 µM; IC50 (OAT1 [2]; [8]): 79 ± 14 µM
